This is an account of results in patent US11643413B2, “9-(2-oxacycloalkyl)-9H-purine-2,6-diamine derivatives and their use for the treatment of skin disorders” (UNIVERZITA PALACKEHO V OLOMOUCI, priority 2017, dated 2023).

One series deals with BJ skin fibroblasts. Description: Intracellular ROS production, DCFH-DA probe. It counts as cell-based, human. The conditions noted are these: 24 h incubation at 100, 10, 1 and 0.1 μM. As for the experimental part: ROS production in living cells was determined by using the fluorescent probe DCFH-DA. In brief, compound 114 at 100, 10, 1 and 0.1 μM concentrations was incubated for 24 h with BJ skin fibroblasts. Thereafter, cells were washed with phosphate buffer and DCFH-DA was added. The fluorescence was read every 1 min over 20 min by using microplate reader Infinite M200 (TECAN, Switzerland). ROS production was calculated as the increase in fluorescence over 20 min.

For a further series, the system named is NIH3T3 fibroblasts. Description: Peroxidation of membrane lipids, MDA by TBA method. It counts as cell-based, mouse. The conditions noted are these: FW = fresh weight. The protocol: A typical symptom associated with aging is the direct consequence of increased concentrations of reactive oxygen species and lipid peroxidation. […] MDA levels were measured using thiobarbituric acid (TBA method). […] The crude extract was centrifuged at 10,000×g for 5 minutes and 100 μl aliquots of the supernatant were mixed with 100 μl of 0.5% (w/v) TBA containing 0.1% (w/v) trichloroacetic acid. The resulting solution was then incubated for 30 min at 95° C. The samples were rapidly cooled on ice and centrifuged for 5 minutes at 1000×g. […] The newly prepared derivatives of the general formula thus have a protective function against the negative effects of reactive oxygen species that accumulate strongly in the tissues.

The subject of series [1] is Salmonella typhimurium strains TA 98, TA 100, TA 1535, TA 1537. Put plainly: Ames test (Bacterial Reverse Mutation Test), Salmonella. The series is classed as cell-based. Particulars: 10-1000 μg per plate; without as well as with metabolic activation. The protocol: (§1) The test substance was (114) assayed for the mutagenicity by the Bacterial Reverse Mutation Test. The performed test was based on EU method B.13/14 Mutagenicity—Reverse mutation test using bacteria, which is analogous to the OECD Test Guideline No. 471. Four indicator Salmonella typhimurium strains TA 98, TA 100, TA 1535, TA 1537 and one indicator Escherichia coli WP2 uvrA strain were used. The test substance was dissolved in dimethylsulfoxide (DMSO) and assayed in doses of 10-1000 μg per plate, which were applied to plates in volume of 0.1 mL. Experiments were performed without as well as with metabolic activation with a supernatant of rat liver and a mixture of cofactors. The working procedure described is in accordance with the documents Method B.13/14, Mutagenicity: Reverse Mutation Test Using Bacteria, Council Regulation (EC) No. 440/2008. Published in O.J. L 142, 2008 and OECD Test Guideline 471, Bacterial Reverse Mutation Test. Adopted Jul. 21, 1997. In the arrangement given above, the test substance was non-mutagenic for all the used tester strains without as well as with metabolic activation.

Series [2] relates to Escherichia coli WP2 uvrA strain. Put plainly: Ames test (Bacterial Reverse Mutation Test), E. coli. Particulars: 10-1000 μg per plate; without as well as with metabolic activation. The series is classed as cell-based. As for the experimental part:
as §1
(In general: In the Ames test, an excess of revertant colonies over the control signals mutagenicity.)

A further series can be described thus: in vivo. The conditions noted are these: both sexes, Wistar, rat, sc. As for the experimental part:
The aim of the study was to investigate acute toxic effects of the test substance, after a single subcutaneous administration to Wistar rats. The testing was performed according to the methods: ČSN EN ISO 10993-11: Biologické hodnoceni zdravotnických prostředků—část 11: Zkoušky na systémovou toxicitu and OECD Test Guideline No. 420 Acute Oral Toxicity—Fixed Dose Proceduře. Adopted 17 Dec. 2001. The test substance 114 was administered in a single dose as solution in vehicle (olive oil), given subcutaneously to male and female Wistar rats. The dosing was performed sequentially. The pre-test (the sighting study) was performed with 1 female and 1 male for each dose level. The dose level of 30 mg/kg was used as the starting dose. No death of animal was recorded at the starting dose, therefore the following dose level was used (100 mg/kg). […] The presence of subcutaneously administered test substance at the dose level of 30 and 100 mg/kg was visible to second day after application. […] According to the study results the Maximum Tolerated Dose (subcutaneous) of the test substance for male and female rats is >100 mg/kg.

Series [3] relates to human epidermal model EpiDerm™. Put plainly: In vitro skin irritation test, EpiDerm. It counts as cell-based. The protocol: Test substance was assayed for the in vitro skin irritation in human epidermal model EpiDerm™. The test was performed according to the Method B.46. In vitro skin irritation: Reconstructed human epidermis model test and Protocol for: In Vitro EpiDerm™ Skin Irritation Test For use with MatTek Corporation's Reconstructed Human Epidermal Model EPI-200-SIT (see par. 1.4, (1), (3)). Two types of extract were prepared by means of polar (water) as well as non-polar extractant (olive oil) according to directions given in ČSN EN ISO 10 993-12 (2012). After pre-incubation of tissues, 30 μl of an extract was placed directly atop to the tissue so it covered all tissue surfaces. Length of exposition was 60 minutes. Three tissues were used for the extract and for each control. The procedure was performed separately for each extract. After removal of extracts of the test substance from tissues, tissues were post incubated for 42 hours due to leave of damage reparation, followed by three hours incubation with MTT and two hours extraction period with shaking. Optical density (OD570) of isopropyl alcohol extracts was measured on a spectrophotometer. Relative cell viability was calculated for each tissue as % of the mean viability of the negative control tissues. Under the above-described experimental design, average viability of tissues treated by test substance water extract was 99.0% and by test substance olive oil extract 103.0%, i.e. viability was >50% in both cases. The effect of the test substance 114 was negative in EpiDerm™ model (tissues were not damaged). According to the classification criteria given in chapter 4.5, the test substance is considered to have no category in regard to skin irritation.

In series [4] the test system is Rabbits (New Zealand Albino breed). Particulars: rabbit, in vivo. As for the experimental part:
The test substance 114 was tested in Animal skin irritation test. Rabbits (New Zealand Albino breed) were used for the test. The test was performed according to ČSN EN ISO 10993 (Březen 2014): Biologické hodnoceni zdravotnických prostředků—část 10: Zkoušky dráždivosti a senzibilizace kůže, článek 6.3 Zkouška dráždivosti na zviřatech (Biological evaluation of medical devices—Part 10: Tests for irritation and delayed-type hypersensitivity). A dose 0.5 g of the test substance was applied to the skin of the back on each side of each rabbit. […] At first the one rabbit (test animal. No. 16) was used. Two other rabbits (rabbit No. 17 and No. 18) were used in confirmatory test. At the end of the contact time (4 hours) the dressings were removed and animals were examined for signs of erythema and oedema, and the response was evaluated at 1, 24, 48 and 72 hours afterpatches removal.

Series [5] in a line: Calcein AM cytotoxicity, NIH-3T3. Particulars: mouse, NIH-3T3 fibroblasts.
From the text: One of the parameters used, as the basis for cytotoxicity assays, is the metabolic activity of viable cells. For example, a microtiter assay, which uses the Calcein AM, is now widely used to quantitate cell proliferation and cytotoxicity. […] Because only metabolically active cells cleave Calcein AM, these assays detect viable cells exclusively. The quantity of reduced Calcein AM corresponds to the number of vital cells in the culture.
Mouse fibroblasts NIH3T3; mouse immortalized bone marrow macrophages B2.4 and B10A.4, and BJ (human foreskin fibroblasts) were used for routine screening of compounds. The cells were maintained in Nunc/Corning 80 cm^2 plastic tissue culture flasks and cultured in cell culture medium (DMEM with 5 g/l glucose, 2 mM glutamine, 100 U/ml penicillin, 100 μg/ml streptomycin, 10% fetal calf serum and sodium bicarbonate).
The cell suspensions that were prepared and diluted according to the particular cell type and the expected target cell density (2.500-30.000 cells per well based on cell growth characteristics) were added by pipette (80 μl) into 96/well microtiter plates. Inoculates were allowed a pre-incubation period of 24 hours at 37° C. and 5% CO2 for stabilisation. Four-fold dilutions of the intended test concentration were added at time zero in 20 μl aliquots to the microtiter plate wells. Usually, the compound tested was evaluated at six 4-fold dilutions. […] All compound concentrations were examined in duplicates. Incubations of cells with the tested compounds lasted for 72 hours at 37° C., in 5% CO2 atmosphere and 100% humidity. At the end of the incubation period, the cells were assayed by using Calcein AM. Ten microliters of the stock solution were pipetted into each well and incubated for 1 hour. Fluorescence (FD) was measured with the Labsystem FIA Reader Fluoroscan Ascent (UK).
[6] abbreviates: 60 minutes exposition, 42 hours post incubation, MTT, % of negative control.

Turning to `CN(C)c1nc(NCc2ccco2)c2ncn(C3CCCCO3)c2n1` (stereo not drawn) [Compound 114, 2-(Dimethylamino)-6-furfurylamino-9-(tetrahydro-2H-pyran-2-yl)-9H-purine], the “concentration at which intracellular ROS production is significantly decreased” value in the series on BJ skin fibroblasts was at least 10 µM. Also, the MDA in the series on NIH3T3 fibroblasts stood at 8.8 nmol/g FW. For the same molecule, in series [1], the mutagenicity result is recorded as “non-mutagenic”. In series [2], the mutagenicity entry was “non-mutagenic”. The molecule further showed an MTD in “in vivo” above 100 mg/kg. Besides, the skin irritation classification result in series [3] was “no category”. For the same molecule, in series [3] (setting [6]), the “average viability of tissues, olive oil extract” value turned out to be 103.0% and the “average viability of tissues, water extract” value is recorded as 99.0%. Further, the “effect in EpiDerm model” value in series [3] (water and olive oil extracts) is “negative”. Besides, in series [4] (New Zealand Albino, 4 h), the “Primary Irritation Index” value was found to be 0. For the same molecule, in series [4], the “changes in animal weights” value is “No changes in animal weights”; the “clinical signs of systemic intoxication” value is “No clinical signs of systemic intoxication”; the erythema and oedema result is “No erythema and oedema”; the skin irritation entry was “No skin irritation”. Besides, the IC50 – broadly, the concentration needed to halve the response being measured – at 72 h in series [5] was above 167 µM.
